# Experimental data from patent US11324706B2, “Composition for inhibiting growth of breast cancer stem cells containing phenylacetaldehyde” (JEJU NATIONAL UNIVERSITY INDUSTRY-ACADEMIC COOPERATION …, priority 2016, dated 2022).
# Entries after “also recorded” stand apart in the source; their conditions may differ.
# Assays:
# [1] = tested on: MDA-MB-231 cells; test: Cell proliferation (MTS) analysis, MDA-MB-231; format: cell-based, human; details: MDA-MB-231, 48 hours after PAA treatment
# Protocol: (FIGS. 1A, B and C) show chemical structures of PAA and viability of MCF-7 and MDA-MB-231 cells depending on PAA. MCF-7 and MDA-MB-231 cells were treated with increasing concentrations of PAA for 48 hours. Anti-proliferation effects of PAA were measured by MTS analysis.
# Proliferation rates of MCF-7 and MDA-MB-231 cells were measured using a CellTiter 96® aqueous one solution cell proliferation kit. MCF-7 and MDA-MB-231 cells were cultured in the presence of PAA (0.1, 0.2, 0.5, 1 and 2 mM) on a 96-well plate for 48 hours. In accordance with the manufacturer's protocol, absorbance at 490 nm was determined using a 96-well plate reader (Dynex Revelation, Dynex Ltd., Billingshurst, UK). All data was determined by measurement of three sets.
# In order to investigate anti-proliferation effects of PAA in human breast cancer cell lines, i.e., MCF-7 and MDA-MB-231, the cancer cell lines were treated with different concentrations of PAA and then MTS analysis was conducted.
# [2] = tested on: Caspase 3/7 activity in MDA-MB-231 cells; test: Caspase-3/7 analysis (Caspase-Glo 3/7 kit); format: cell-based, human; details: MDA-MB-231, 24 hours
# Protocol: (§1) (FIGS. 1D, E and F) show effects of PAA on apoptosis of breast cancer cells. MDA-MB-231 cells were treated with PAA for 24 hours, and apoptotic cells were analyzed by FACS using an Annexin V-PI staining kit. Caspase 3/7 activity in MDA-MB-231 cells was analyzed using a Caspase-Gloss 3/7 kit. By fluorescent staining, apoptotic cells were analyzed and nuclei thereof were stained with Hoechst 33258 in breast cancers (magnified, 200×) (FIG. 1);
# Cancer cells were treated with different concentrations of PAA for 24 hours. Caspase-3/7 activity was analyzed in accordance with the manufacturer's instructions regarding a Caspase-Glo 3/7 kit (Promega, Wis., USA). 100 μl of a Caspase-Glo 3/7 reagent was added to a 96-well for culturing cancer cells. The plate was covered with a plate sealer and cultured at room temperature for one hour, and Caspase-3/7 activity was measured using a plate-reading luminometer, GloMax® Explorer (Promega, Wis., USA).
# [3] = tested on: MDA-MB-231 cells; test: Analysis of apoptosis by fluorescent staining (Hoechst 33258); format: cell-based, human; details: MDA-MB-231, Hoechst 33258 staining
# Protocol: as §1
# MDA-MB-231 cells were treated with 200 μm of PAA for 24 hours and were cultured in a Hoechst 33258 solution (10 mg/mL) at 37° C. for 30 minutes.
# [4] = tested on: MDA-MB-231 cells; test: Scratch migration assay; format: cell-based, human
# Protocol: Scratch curing of MDA-MB-231 cells was imaged at […] with or without PAA treatment;
# MDA-MB-231 cells were seeded on a 6-well plate to grow cells until confluence reached 90%. Scratch was created on the cell layer using a sterilized white micro-pipette tip. After washing with DMEM medium, breast cancer cells were treated with PAA or DMSO. 16 hours later, the scratch region was imaged with a 10× optical microscope.
# [5] = tested on: Nanog, Sox2, Oct4 and CD44 genes; test: Real-time PCR of CSC markers in mammospheres; format: cell-based, human; details: β-actin internal control
# Protocol: In accordance with the manufacturer's instructions, the level of transcriptome was measured with one step SYBR PrimeScript RT-PCR kit (Takara, Tokyo, Japan) using SYBR green as a double-stranded DNA-specific dye. One-step RT-PCR reaction was conducted in the final volume of 20 μl per reaction containing 1 μg of total RNA, 10 μl of 2× one step SYBR RT-PCR buffer IV, 1 μl of PrimeScript 1 step enzyme mix II, and 10 μM of PCR forward primers and PCR reverse primers for CD44, NANOG, OCT4, SOX2, and β-actin. The forward and reverse primers are as follow: […]
# Relative expression amounts of mRNAs of target genes were calculated using a comparative CT method. At least three independent PCR procedures were conducted in accordance with statistical analysis. PCR products were normalized with β-actin genes, as an internal control.
# [6] = tested on: nuclear STAT3 proteins (phosphorylation); test: Western blotting of mammosphere nuclear proteins, pStat3; format: cell-based, human; details: MCF-7-derived mammospheres, compared to the control group
# Protocol: The proteins isolated from mammospheres of PAA-treated MCF-7 were separated on 10% SDS-PAGE and transferred to a polyvinylidene difluoride membrane (Millipore, Bedford, Mass., USA). The membrane was blocked in 5% skim milk-containing PBS-Tween 20 (0.1%, v/v) for 30 minutes at room temperature. The blot was cultured at 4° C. in a blocking solution containing primary antibodies overnight. The used primary antibodies were as follows: Stat3, p65, Lamin B, and phospho-Stat3 (Cell Signaling, Beverly, Mass., USA). β-actin antibodies (Santa Cruz Biotechnology) were used as a loading control group. After washing with PBS-Tween 20 (0.1%, v/v), the blot was cultured in a horseradish peroxidase-conjugated secondary antibody and subjected to photosensitive treatment with a chemiluminescent detection kit (Santa Cruz Biotechnology).
# In order to investigate cellular functions of PAA, STAT3 and NF-κB pathways were investigated in MCF-7-derived mammospheres subjected to treatment with PAA. As compared to the control group, PAA reduced phosphorylation of nuclear STAT3 proteins.
# [7] = tested on: HT-29 cells; test: MTS analysis in human colorectal cancer cells; format: cell-based; details: HT-29, MTS, PAA at a concentration up to 2 mM
# Protocol: Anti-proliferation effects of PAA in human colorectal cancer cell lines were measured by MTS analysis.
# Next, in order to investigate anti-proliferation effects of PAA on human colorectal cancer cell lines, i.e., HT-29 cells, after treatment with PAA at different concentrations, MTS analysis was conducted.
compound,measurement,setting,value
"O=CCc1ccccc1 [PAA, phenylacetaldehyde]",PAA concentration at which growth of the cell line was concentration-dependently inhibited,[1],≥ 100 μm
same,activity of caspase 3/7,[2],concentration-dependently induced
same,formation of apoptotic bodies,[3],apoptotic bodies were formed
same,migration of MDA-MB-231 cells,[4],concentration-dependently inhibited
same,"expression of self-renewal genes such as Nanog, Sox2, Oct4, and CD44",[5],reduced
same,phosphorylation of nuclear STAT3 proteins,[6],reduced
same,growth (proliferation) of colorectal cancer cells,[7],did not affect; also recorded: no significant proliferation inhibitory effects
